Assay [1] concerns hippocampal brain slice. Kind of assay: Zn2+ release into extracellular fluid of acute hippocampal brain slices, EnZin fluorescence. It is filed as cell-based, rat. To be noted: immediately after adding to hippocampal slice bath. How it is done: Experiments were performed on transverse hippocampal splices taken from 5 to 6 week-old male rats. In all, 41 hippocampal slices and 10 additional hippocampi taken directly from intact animals (“freshly frozen” see below) were studied quantitatively. After halothane (3.5%) inhalation in the anesthetic box, the rats were perfused with 4° C. artificial cerebrospinal fluid (ACSF) (NaCl was substituted by 190 mM sucrose) intracardially for 1 minute (76-77).
After perfusion, the rats were decapitated and the hippocampi were dissected out and placed in cold (4° C.) artificial cerebrospinal fluid. Transverse slice (400 μm) were cut with a vibratome (Campden Vibraslice, model # 752) and placed on a nylon mesh in an incubation chamber. […] The slices were kept at 20° C. in oxygenated (95% O2, 5% CO2) artificial cerebrospinal fluid for 30 minute before stimulation. The gas mixture was also bubbled through the water bath in the chamber and vented over the chamber for >30 minute before the experiment started. The standard artificial cerebrospinal fluid comprised 130 mM NaCl, 3.5 mM KCl, 1.25 mM NaH2PO4, 2 mM MgSO4, 2 mM CaCl2, 20 mM NaHCO3, 2 mM ascorbic acid and 10 mM D-glucose.
For measuring zinc release with EnZin, (apoCA+ABDN), the slices were epi-illuminated with 420 nm light and imaged through both 530 nm and 700 nm band pass filters. […] The ABDN is fluorescent at 600 nm when free, but fluoresces at 560 nm when bound to the Zn+CA (“holo” CA). Thus, the CA is the zinc detector, and the ABDN is the ratiometric fluorescent reporter. A variety of CA with different zinc affinities for different zinc measurement ranges can be generated (78).
The ratio of the 520/700 nm images were then calculated (Optimus), giving a ratiometric image of zinc concentration. In this fluorescence system, the affinity of the EnZin is so high (Kd=[…]) that it can be treated as infinite. With a stoichiometric excess of EnZin, the percent occupancy of the EnZin by Zn^2+ can be used as the modulator of fluorescence intensity. […]

In assay [2] the test system is vesicular zinc in axonal boutons of the hippocampal formation. To be noted: for vesicular zinc staining of boutons (qualitative): TSQ staining, 2 hr after infusion, hippocampal formation.
Procedure: Adult Sprague-Dawley rats (male, 300-350 g) were anesthetized with halothane, and mounted in a stereotaxic instrument where a bone defect was opened after reflection of the scalp.
For measuring the normal concentration of vesicular zinc in the tissue after treatment with various nitric oxide generators, frozen tissue sections were cut in a closed-top cryostat at 30 μm (−14° C.). For whole brains, starting at 3.6 mm caudal to bregma, every 3rd section was saved until 5-10 sections were obtained. For tissue slices studied in vitro, every section was saved (typically 6-9 per brain slice). After cutting, the sections were thawed onto glass slides, dried, then stained with TSQ (80-82).
The sections were stained with TSQ, ((N-(6-methoxy-8-quinolyl)-para-1-toluenesulfonamide, Molecular Probes), as described previously (80) for fluorescence visualization of Zn^2+. Briefly, the frozen, unfixed sections were immersed in a solution of TSQ (4.5 μM) in 140 mM sodium barbital and 140 mM sodium acetate buffer (pH 10-10.5) for 60 seconds, rinsed for 60 seconds in normal saline (NaCl, 0.9%), then viewed and imaged in the microscope with no coverslip while still damp. A SPOT2 cooled CCD camera was used to capture the fluorescence images (10×n.a. 0.65) at 12 bit resolution for subsequent quantitation of zinc-TSQ fluorescence intensity. Control and treated tissues were always digitized in the same sitting to guard against sensitivity changes in the system.
Rats were anesthetized, a microsyringe and needle were lowered into the hippocampal formation or neocerebellar cortex by stereotaxis and then nitric oxide generators were infused into the tissue. After 120 minutes of survival, the rats were sacrificed and the brains were cut and stained to show the location and concentration of the weakly bound Zn^2+ that is normally sequestered in the presynaptic boutons, i.e., vesicular zinc. Zinc localization and quantification were determined by TSQ fluorescence staining.
The target in assay [3] is Zn^2+-bound CA (bovine CA I). Conditions: cited from earlier work.
Assay [4] has as its system hippocampal slice. Kind of assay: Zn2+ release from hippocampal slice in oxygen-glucose deprivation (OGD) and reperfusion, Newport Green. Type of assay: cell-based, rat. To be noted: slices pretreated, 1 mM. From the text: In the in vitro model, the ischemia was translated to the hippocampal slice using the established oxygen-glucose deprivation (OGD) paradigm. Zinc in the extracellular fluids of the slice was monitored using membrane impermeable Newport Green as a sensor for Zn^2+ in the extracellular fluid as described herein. The release results paralleled the results obtained in vivo from the rabbits. Zinc was released into the extracellular fluid at the onset of OGD, then even more release was observed during reperfusion (FIG. 8).

Assay [5] deals with zinc-positive neurons. Kind of assay: Pilocarpine-induced seizures, number of zinc-positive neurons. It is filed as in vivo.
Assay [6] relates to zinc-positive neurons in hilus and hippocampal cortex (CA3). Kind of assay: Traumatic brain injury plus hypoperfusion, number of zinc-stained neurons. Conditions: for sparing in the number of zinc-injured (zinc-positive) neurons: trauma plus hypoperfusion. It is filed as in vivo, rat. The text has this: Male Sprague-Dawley rats weighing 350-400 g were anesthetized with isoflurane in an anesthetic chamber, intubated, and mechanically ventilated with 1.5-2.0% isoflurane in O2:room air (70:30) using a volume ventilator (EDCO Scientific, Chapel Hill, N.C.). Polyethylene cannulae were placed in both femoral arteries and one femoral vein for arterial pressure monitoring and hemorrhage and for drug infusion, respectively. Rectal and temporalis muscle temperatures were monitored using telethermometers (Yellow Springs Instruments, Yellow Springs, Ohio). Rectal temperature was maintained using a thermostatically controlled water blanket (Gaymar, Orchard Park, N.Y.).
Rats were prepared for parasagittal fluid-percussion traumatic brain injury (TBI) and for laser Doppler flowometry as described below. Intracranial pressure (ICP) was monitored continuously using a Camino probe (V420, Camino Laboratories, San Diego, Calif.) placed in a lateral ventricle through a small craniotomy placed posterior and lateral to the fluid percussion injury site. Isoflurane was lowered to 1.5%; the rats were connected to the trauma device, and subjected to moderate or severe traumatic brain injury.
After traumatic brain injury (or sham-TBI) blood was withdrawn from a catheter in a femoral artery to reduce MAP to 60 mmHg. Mean arterial pressure was maintained at 60 mmHg for 45 minutes during which time cerebral blood flow and ICP were measured. […] Post-resuscitation measurements were then performed. An arterial blood sample was withdrawn with each measurement series to determine PaCO2, PaO2, pH and hemoglobin concentration or hematocrit.
Fluid-percussion traumatic brain injury is a clinically relevant model that has been used in many studies of traumatic brain injury in cats, rats, and pigs (79, 82). The trauma device consists of a Plexiglas cylinder 60 cm long and 4.5 cm in diameter. One end of the device is connected to a hollow metal cylinder housing a pressure transducer (Statham PA856-100) and the other end is closed by a Plexiglas piston mounted on O-rings.
The piston is struck by a 4.8-kg steel pendulum dropped from a variable height, which determines the intensity of injury. The pressure pulse is recorded on a storage oscilloscope triggered photoelectrically by the descent of the pendulum. Sham-injured rats were connected to the trauma device but were not injured.
The effects of a moderate (2.0 atm) or severe (3.0 atm) levels of injury were studied. Moderate injury (2.1 atm) is associated with 10% mortality, reductions in EEG amplitude for 10 to 15 min, brief (<5 min) suppression of reflexes (corneal, pinna, paw flexion to pinch, righting), and return of spontaneous locomotion within 10 min. […]

“Also recorded” adds a separate entry of the source.

For the compound `NCCCNCCCCNCCCN` [Spermine], in assay [1], the “Zn^2+ fluorescence in the slice bath / extracellular fluid” value is listed as “no effect”. Further, the “vesicular zinc staining of boutons (qualitative)” value in assay [2] is given as “unaffected”.
In general, Kd refers to the free concentration of one partner at which half of the binding sites on the other are occupied at equilibrium, for simple one-to-one binding. For the compound `NS(=O)(=O)c1ccc(NCCO)c2nonc12` [ABDN], in assay [3], the Kd was 45 µM.
For `CC(=O)N[C@H](C(=O)O)C(C)(C)SN=O` [SNAP, S-nitroso-N-acetyl-L-penicillamine], in assay [1], the “Zn^2+ fluorescence in the slice bath / extracellular fluid” value is given as “rapid (within seconds) increase; also recorded: raised”.
On to `NCCCNCCCCN(CCCN)/[N+]([O-])=N/O` [Spermine NO, Spermine-NONOate], for which the “Zn^2+ fluorescence in the slice bath / extracellular fluid” value in assay [1] was “rapid (within seconds) increase”. Also, the “vesicular zinc staining of boutons (qualitative)” value in assay [2] is “depletes zinc”. Further, the “vesicular zinc in the hilus reduced compared to control” value in assay [2] (quantitative microfluorimetric analysis, hilus, in vivo infusion) is on record as “about 60%”.
For the compound `COC(=O)[C@@H](N)CCCNC(=N)N[N+](=O)[O-]` [L-NAME, N(6)-nitro-L-arginine methyl ester], the “Zn^2+ release into extracellular fluid after OGD and reperfusion” value in assay [4] is listed as “almost completely blocked”. The “number of zinc-positive neurons after excitotoxic insult (qualitative)” value in assay [5] and in assay [6] (blunt-trauma) was “dramatically reduces” throughout. Also, the “number of zinc-stained cells (qualitative)” value in assay [6] (TBI plus hypoperfusion, prior administration) is recorded as “substantial reduction; also recorded: greatly reduces”. Besides, the “sparing in the number of zinc-injured (zinc-positive) neurons” value in assay [6] (hilus) and in assay [6] (hippocampal cortex (CA3)) was 50% throughout.

Source of the values: patent publication US20090325858A1, “Reduction of Zinc-Induced Neurotoxic Injury By Blockade of Nitric Oxide Synthesis” (ANDRO DIAGNOSTICS, INC., priority 2003, published 2009).
